Measured values published in ChEMBL document CHEMBL3870345, “Bioactive chemical constituents from the root bark of Morus australis” (Bioorg Med Chem Lett, 2017).
Values after ≈ are worked out from the molar mass of the structure shown.

Tests used:
[1] = Antiplatelet aggregatory activity against New Zealand white rabbit platelets at 10 uM preincubated for 2 to 3 mins followed by PAF-addition measured after 4 mins by turbidometric method relative to vehicle control; format: functional, Oryctolagus cuniculus, Platelet
[2] = Cytotoxicity against mouse RAW264.7 cells assessed as cell viability at 1.562 ug/ml measured after 24 hrs in presence of LPS by MTT assay (reference value: 96.3 +/- 1%); format: toxicity; details: read-out: Activity
[3] = Antiplatelet aggregatory activity against New Zealand white rabbit platelets at 100 uM preincubated for 2 to 3 mins followed by arachidonic acid -addition measured after 4 mins by turbidometric method relative to vehicle control; format: functional, Oryctolagus cuniculus, Platelet
[4] = system: RAW264.7; experiment: Inhibition of LPS-induced NO production in mouse RAW264.7 cells at 3.125 ug/ml measured after 24 hrs by Griess assay relative to LPS-treated control; format: functional; details: RAW264.7, 24 h
[5] = Cytotoxicity against mouse RAW264.7 cells assessed as cell viability at 3.125 ug/ml measured after 24 hrs in presence of LPS by MTT assay (reference value: 96.3 +/- 1%); format: toxicity; details: read-out: Activity
[6] = Antiplatelet aggregatory activity against New Zealand white rabbit platelets preincubated for 2 to 3 mins followed by ADP-addition measured after 4 mins by turbidometric method; format: functional, cell-based, Oryctolagus cuniculus; details: platelet
[7] = Antiplatelet aggregatory activity against New Zealand white rabbit platelets at 100 uM preincubated for 2 to 3 mins followed by ADP-addition measured after 4 mins by turbidometric method relative to vehicle control; format: functional, Oryctolagus cuniculus, Platelet
[8] = system: RAW264.7; experiment: Inhibition of LPS-induced NO production in mouse RAW264.7 cells at 6.25 ug/ml measured after 24 hrs by Griess assay relative to LPS-treated control; format: functional; details: RAW264.7, 24 h
[9] = Antiplatelet aggregatory activity against New Zealand white rabbit platelets preincubated for 2 to 3 mins followed by arachidonic acid-addition measured after 4 mins by turbidometric method; format: functional, cell-based, Oryctolagus cuniculus; details: platelet
[10] = Antiplatelet aggregatory activity against New Zealand white rabbit platelets at 100 uM preincubated for 2 to 3 mins followed by PAF-addition measured after 4 mins by turbidometric method relative to vehicle control; format: functional, Oryctolagus cuniculus, Platelet
[11] = system: RAW264.7; experiment: Inhibition of LPS-induced NO production in mouse RAW264.7 cells at 1.562 ug/ml measured after 24 hrs by Griess assay relative to LPS-treated control; format: functional; details: RAW264.7, 24 h
[12] = Cytotoxicity against mouse RAW264.7 cells assessed as cell viability at 6.25 ug/ml measured after 24 hrs in presence of LPS by MTT assay (reference value: 96.3 +/- 1%); format: toxicity; details: read-out: Activity
[13] = system: RAW264.7; experiment: Inhibition of LPS-induced NO production in mouse RAW264.7 cells measured after 24 hrs by Griess assay; format: functional, cell-based; details: for IC50: RAW264.7, 24 h
[14] = Cytotoxicity against mouse RAW264.7 cells assessed as cell viability at 25 ug/ml measured after 24 hrs in presence of LPS by MTT assay (reference value: 96.3 +/- 1%); format: toxicity; details: read-out: Activity
[15] = Cytotoxicity against mouse RAW264.7 cells assessed as cell viability at 12.5 ug/ml measured after 24 hrs in presence of LPS by MTT assay (reference value: 96.3 +/- 1%); format: toxicity; details: read-out: Activity
[16] = Cytotoxicity against mouse RAW264.7 cells assessed as cell viability at 50 ug/ml measured after 24 hrs in presence of LPS by MTT assay (reference value: 96.3 +/- 1%); format: toxicity; details: read-out: Activity
[17] = system: RAW264.7; experiment: Inhibition of LPS-induced NO production in mouse RAW264.7 cells at 25 ug/ml measured after 24 hrs by Griess assay relative to LPS-treated control; format: functional; details: RAW264.7, 24 h
[18] = system: RAW264.7; experiment: Inhibition of LPS-induced NO production in mouse RAW264.7 cells at 12.5 ug/ml measured after 24 hrs by Griess assay relative to LPS-treated control; format: functional; details: RAW264.7, 24 h
[19] = Cytotoxicity against mouse RAW264.7 cells assessed as cell viability at 1.563 ug/ml measured after 24 hrs in presence of LPS by MTT assay (reference value: 96.3 +/- 1%); format: toxicity; details: read-out: Activity
[20] = system: RAW264.7; experiment: Inhibition of LPS-induced NO production in mouse RAW264.7 cells at 1.563 ug/ml measured after 24 hrs by Griess assay relative to LPS-treated control; format: functional; details: RAW264.7, 24 h
[21] = Antiplatelet aggregatory activity against New Zealand white rabbit platelets at 50 uM preincubated for 2 to 3 mins followed by arachidonic acid -addition measured after 4 mins by turbidometric method relative to vehicle control; format: functional, Oryctolagus cuniculus, Platelet

Compound	IC50 [13]	Activity [3]	inhibition at 3.125 µg/mL [4]	viability at 24 h, 3.125 ug/ml [5]	Activity [7]	inhibition at 6.25 µg/mL [8]	Activity [10]	viability at 24 h, 6.25 ug/ml [12]	inhibition [13]	viability at 24 h, 25 ug/ml [14]	viability at 24 h, 12.5 ug/ml [15]	viability at 24 h, 50 ug/ml [16]	inhibition at 12.5 µg/mL [18]	also measured
CCCCCCCCCCCCCCCCCCNC(=O)OCC(COP(=O)([O-])OCC[n+]1ccsc1)OC (centres undefined)	–	–	–	–	–	–	–	–	–	–	–	–	–	Activity [1]: 85.96%
O=[N+]([O-])/C=C\c1ccc(O)cc1	2.1 µg/mL (≈ 12.7 µM)	96.03%	59.6%	89%	96.35%	60%	73.02%	82.2%	Dose-dependent effect	46.9%	48.3%	11.9%	–	viability at 24 h, 1.562 ug/ml [2]: 94.5%; IC50 [6]: 9.76 µM; IC50 [9]: 9.81 µM; inhibition at 1.562 µg/mL [11]: 46.4%
C=C(C)C(O)CC[C@]1(C)C=Cc2c(cc3oc(-c4ccc(O)cc4)cc(=O)c3c2O)O1 (some centres undefined)	–	<60%	–	–	<60%	–	<60%	–	–	–	–	–	–	–
C=C(C)C(=O)c1c(-c2ccc(O)cc2O)oc2cc3c(c(O)c2c1=O)C=CC(C)(C)O3	–	<60%	–	–	<60%	–	<60%	–	–	–	–	–	–	–
CC(=O)Oc1ccccc1C(=O)O [ASPIRIN]	–	–	–	–	–	–	–	–	–	–	–	–	–	Activity [21]: 90.62%
CC1(C)C=Cc2c(cc(O)c3c(=O)c4c(oc23)-c2ccc(O)cc2OC(C(C)(C)O)C4)O1 (centres undefined) [NEOCYCLOMORUSIN]	6.3 µg/mL (≈ 14.4 µM)	99.7%	41.2%	98.3%	98.57%	50.8%	99.63%	82.4%	Dose-dependent effect	40.8%	48.8%	12.8%	–	–

Further lines, with some results ahead:

IC50 [13]	Compound	Activity [3]	inhibition at 3.125 µg/mL [4]	viability at 24 h, 3.125 ug/ml [5]	Activity [7]	inhibition at 6.25 µg/mL [8]	Activity [10]	viability at 24 h, 6.25 ug/ml [12]	inhibition [13]	viability at 24 h, 25 ug/ml [14]	viability at 24 h, 12.5 ug/ml [15]	viability at 24 h, 50 ug/ml [16]	inhibition at 12.5 µg/mL [18]	also measured
> 25 µg/mL	CC(C)=CCC/C(C)=C/Cc1c(-c2ccc(O)cc2O)oc2c(CC=C(C)C)c(O)cc(O)c2c1=O	89.66%	30%	100%	96.37%	33.7%	90.15%	99.7%	Dose-dependent effect	96.8%	97.1%	67%	34.1%	inhibition at 25 µg/mL [17]: 35%
2.4 µg/mL (≈ 4.76 µM)	CC(=O)Oc1ccc(-c2oc3c4c(cc(O)c3c(=O)c2CC=C(C)C)OC(C)(C)C=C4)c(OC(C)=O)c1	90.01%	58.7%	91%	93.27%	69.2%	90.22%	80.3%	Dose-dependent effect	13.9%	36.6%	11.7%	–	viability at 24 h, 1.563 ug/ml [19]: 96%; IC50 [6]: 10.2 µM; inhibition at 1.563 µg/mL [20]: 40.4%
4.5 µg/mL (≈ 10.8 µM)	CC(C)=CC1Oc2cc(O)ccc2-c2oc3c4c(cc(O)c3c(=O)c21)OC(C)(C)C=C4 (centres undefined) [CYCLOMORUSIN]	<60%	46.6%	86.3%	<60%	54.1%	<60%	86.2%	Dose-dependent effect	57.6%	81.9%	14%	73.7%	–
4.1 to 4.6 µg/mL (≈ 9.35 to 10.5 µM)	CC(C)(O)CCc1c(-c2ccc(O)cc2O)oc2c3c(cc(O)c2c1=O)OC(C)(C)C=C3 [MORUSINOL]	50.5%	42 to 45.8%	95.9%	57.88 - 78.98%	59 to 62.5%	<60%	81.9 to 91.3%	Dose-dependent effect	36.9 to 49.2%	69.5 to 82.1%	9.9 to 14.4%	81.4%	–
> 12.5 µg/mL	CC(C)=CCc1c(-c2ccc(O)cc2O)oc2c3c(cc(O)c2c1=O)OC(C)(C)C=C3 [MORUSIN]	<60%	15.1%	94.5%	60.22%	23.3%	<60%	83.3%	Dose-dependent effect	69.6%	73.8%	23.1%	39.3%	–
